Measured values published in US20090068290A1, “BIFEPRUNOX DOSES FOR TREATING SCHIZOPHRENIA” (priority 2006, published 2009).

Tests used:
Format in all cases: in vivo, human
[1] = tested on: adult subjects with schizophrenia; assay: BPRS total score, Clinical Study One; settings: Risperidone 6 mg, ITT population
Procedure: There were five treatment groups in this study. […] Study medication was administered once daily. After Baseline measurements were performed, the titration phase was begun. Bifeprunox treated subjects were titrated up to 5 mg, 10 mg or 20 mg according to a standardized titration schedule (Day 1: 0.125 mg, Day 2: 0.25 mg, Day 3: 0.5 mg, Day 4: 1.0 mg, Day 5: 2.0 mg, Day 6: 5.0 mg, Day 7: 10.0 mg, Day 8: 20 mg). When the assigned dose was reached, subjects were maintained at that dose for the remainder of the six-week treatment period.
The change in the Positive and Negative Symptom Scale (PANSS) total score, from baseline to endpoint, was the primary outcome measure. Secondary efficacy measures included: PANSS positive, PANSS negative, PANSS general psychopathology (GPP) score, PANSS-derived Brief Psychiatric Rating Scale (BPRS) score, Clinical Global Impressions-Severity of Illness (CGI-S), CGI-Improvement (CGI-I) scores, and responder rates. Safety and tolerability evaluations included extrapyramidal symptoms (EPS), weight gain, lipid profile, and serum prolactin.

[2] = tested on: adult subjects with schizophrenia; assay: CGI Severity of Illness score, Clinical Study Two; settings: LOCF; for Change from Baseline in CGI Severity of Illness Score, Mean (SD) / Change from Baseline in CGI Severity of Illness Score, Median: Risperidone 6 mg, ITT population
Procedure: Rating scale assessments were performed weekly, except for week 5, to measure the change from baseline to endpoint of the PANSS total score. Other assessments included: PANSS positive symptom subscale score, PANSS negative symptom subscale score, PANSS general pschopathology subscale score, BPRS total score, BPRS psychosis score, the CGI-S score, the CGI-I score, responder rates based on the PANSS total score, and the Calgary Depression Scale for Schizophrenia (CDSS). […]
(§1) Subjects who completed this study had the option to continue in the long-term. […] Risperidone-treated subjects were titrated from 2 mg to 6 mg daily over a three-day period and were subsequently maintained at 6 mg/day for the remainder of the treatment period. […] Blood samples were also obtained at Screening/Baseline, Week 3, and Week 6 for clinical laboratory assessments.

[3] = tested on: adult subjects with schizophrenia; assay: PANSS responder rate, Clinical Study Two; settings: risperidone 6 mg
Procedure: Notable differences were also observed between the 30 mg bifeprunox group and placebo for the change from baseline to endpoint in PANSS general psychopathology subscale score, BPRS total score, BPRS psychosis cluster score, PANSS responder rate, and CGI-I responder rate. […] A CGI-I responder refers to a subject who was categorized as “very much improved” or “much improved” in the CGI Global Improvement scale at endpoint. […]
as §1, with “assessments. […]” for “assessments.”

[4] = tested on: adult subjects with schizophrenia; assay: PANSS positive symptom subscale score, Clinical Study Three; settings: Olanzapine 15 mg, LOCF, ITT
Excerpt: (§2) SECONDARY OBJECTIVES To assess the efficacy of bifeprunox in treating schizophrenia using the Positive Symptom sub-scale score of the PANSS, the Negative Symptom sub-scale score of the PANSS, the General Psychopathology sub-scale of the PANSS, Brief Psychiatric Rating Scale (BPRS) total score derived from the PANSS, BPRS psychosis score derived from the PANSS, the Clinical Global Impression Severity of Illness score (CGI-S), the Clinical Global Impression Improvement score (CGI-I), CGI-I responder rate, PANSS responder rate based on the PANSS total score, Calgary Depression Scale for Schizophrenia (CDSS), and Subject Satisfaction rating.
(§3) There were four treatment arms in this study, approximately 144 subjects per arm. […] After completing the Single-Blind Placebo Lead-in Period of at least three days, bifeprunox-treated subjects were titrated from 0.25 mg up to 20 mg/day or 30 mg/day according to a standardized titration scheme over a seven- or eight-day period, respectively. When the assigned dose was reached, subjects were maintained at that dose for the remainder of the six week treatment period. […] Subjects were hospitalized (if not already inpatients) after eligibility for study entry was verified, starting from the Screening Visit until at least 10 days after Baseline. Subjects could be hospitalized longer than 10 days if considered medically necessary by the Investigator. Rating scale assessments for efficacy and abnormal movement disorders were done weekly except for Week 5. […] Subject satisfaction with study medication was assessed at Week 6.

[5] = tested on: adult subjects with schizophrenia; assay: PANSS negative symptom subscale score, Clinical Study Three; settings: LOCF; for Change from Baseline in PANSS Negative Symptom Subscale Score, Mean (SD) / Change from Baseline in PANSS Negative Symptom Subscale Score, Median: Olanzapine 15 mg, ITT population
Excerpt: as §2, §3

Cc1nc2n(c(=O)c1CCN1CCC(c3noc4cc(F)ccc34)CC1)CCCC2 [Risperidone, risperidone, reference compound] was tested, and the “Change from Baseline in BPRS Total Score, Mean (S.D.)” value (shortened to “Change from Baseline … (S.D.)”) ([1]; Endpoint LOCF) was −9.2 (8.9), the “Change from Baseline in BPRS Total Score, Median” value ([1]; Endpoint LOCF) was −9 and the “Change from Baseline … (S.D.)” value ([1]; Week 1, LOCF) was −4.6 (6.5). For the same compound, the “Change from Baseline in BPRS Total Score, Median” value ([1]; Week 1, LOCF) was −3, the “Change from Baseline … (S.D.)” value ([1]; Week 2, LOCF) was −7.6 (8.4) and the “Change from Baseline in BPRS Total Score, Median” value ([1]; Week 2, LOCF) was −7. The “Change from Baseline … (S.D.)” value ([1]; Week 3, LOCF) was −9.1 (8.4), the “Change from Baseline in BPRS Total Score, Median” value ([1]; Week 3, LOCF) was −9 and the “Change from Baseline … (S.D.)” value ([1]; Week 4, LOCF) was −8.6 (9.0). For the same compound, the “Change from Baseline in BPRS Total Score, Median” value ([1]; Week 4, LOCF) was −7, the “Change from Baseline in CGI Severity of Illness Score, Mean (SD)” value (“Change from Baseline in CGI Severity … (SD)” for short) ([2]; Week 1) was −0.39 (0.63) and the “Change from Baseline in CGI Severity of Illness Score, Median” value (from here on “Change … of Illness Score, Median”) ([2]; Week 1) was 0.0. For the same compound, the “Change from Baseline in CGI Severity … (SD)” value ([2]; Week 2) was −0.73 (0.95), the “Change … of Illness Score, Median” value ([2]; Week 2) was −1.0 and the “Change from Baseline in CGI Severity … (SD)” value ([2]; Week 3) was −0.94 (1.00). For the same compound, the “Change … of Illness Score, Median” value ([2]; Week 3) was −1.0, the “Change from Baseline in CGI Severity … (SD)” value ([2]; Week 4) was −1.02 (1.09) and the “Change … of Illness Score, Median” value ([2]; Week 4) was −1.0. The “Change from Baseline in CGI Severity … (SD)” value ([2]; Week 6/Endpoint) was −1.06 (1.20), the “Change … of Illness Score, Median” value ([2]; Week 6/Endpoint) was −1.0 and the “mean change (SD) from Baseline to Endpoint in CGI severity of illness score” value ([2]; risperidone 6 mg, ITT) was −1.06 (1.20). For the same compound, the “PANSS 20% responder rate” value ([3]; Endpoint LOCF) was 54%, the “PANSS 30% responder rate” value ([3]; Endpoint LOCF) was 31% and the “PANSS Responder at Endpoint, 30% Definition Responder, No” value ([3]; LOCF, ITT) was 104 (69%) n (%). The “PANSS Responder at Endpoint, 30% Definition Responder, Yes” value ([3]; LOCF, ITT) was 47 (31%) n (%), the “PANSS Responder at Week 6/Endpoint, 20% Definition, No” value ([3]; LOCF, ITT) was 69 (46%) n (%) and the “PANSS Responder at Week 6/Endpoint, 20% Definition, Yes” value ([3]; LOCF, ITT) was 78 (54%) n (%).

In the case of Cc1cc2c(s1)Nc1ccccc1N=C2N1CCN(C)CC1 [Olanzapine, olanzapine, reference compound], the “Change from Baseline in PANSS Positive Symptom Subscale Score, Mean (SD)” value ([4]; Week 1) is reported as −3.0 (3.3), the “Change from Baseline in PANSS Positive Symptom Subscale Score, Median” value ([4]; Week 1) is reported as −2 and the “Change from Baseline in PANSS Positive Symptom Subscale Score, Mean (SD)” value ([4]; Week 2) is reported as −4.9 (4.0). The “Change from Baseline in PANSS Positive Symptom Subscale Score, Median” value ([4]; Week 2) was −5, the “Change from Baseline in PANSS Positive Symptom Subscale Score, Mean (SD)” value ([4]; Week 3) was −6.0 (4.9) and the “Change from Baseline in PANSS Positive Symptom Subscale Score, Median” value ([4]; Week 3) was −6. The “Change from Baseline in PANSS Positive Symptom Subscale Score, Mean (SD)” value ([4]; Week 4) was −6.4 (5.4), the “Change from Baseline in PANSS Positive Symptom Subscale Score, Median” value ([4]; Week 4) was −7 and the “Change from Baseline in PANSS Positive Symptom Subscale Score, Mean (SD)” value ([4]; Week 6/Endpoint) was −7.0 (5.8). For the same compound, the “Change from Baseline in PANSS Positive Symptom Subscale Score, Median” value ([4]; Week 6/Endpoint) was −7, the “Change from Baseline in PANSS Negative Symptom Subscale Score, Mean (SD)” value ([5]; Week 1) was −1.8 (3.1) and the “Change from Baseline in PANSS Negative Symptom Subscale Score, Median” value ([5]; Week 1) was −1. For the same compound, the “Change from Baseline in PANSS Negative Symptom Subscale Score, Mean (SD)” value ([5]; Week 2) was −3.0 (3.8), the “Change from Baseline in PANSS Negative Symptom Subscale Score, Median” value ([5]; Week 2) was −3 and the “Change from Baseline in PANSS Negative Symptom Subscale Score, Mean (SD)” value ([5]; Week 3) was −4.0 (4.8). For the same compound, the “Change from Baseline in PANSS Negative Symptom Subscale Score, Median” value ([5]; Week 3) was −3, the “Change from Baseline in PANSS Negative Symptom Subscale Score, Mean (SD)” value ([5]; Week 4) was −4.0 (4.9) and the “Change from Baseline in PANSS Negative Symptom Subscale Score, Median” value ([5]; Week 4) was −4. For the same compound, the “Change from Baseline in PANSS Negative Symptom Subscale Score, Mean (SD)” value ([5]; Week 6/Endpoint) was −4.6 (5.2), the “Change from Baseline in PANSS Negative Symptom Subscale Score, Median” value ([5]; Week 6/Endpoint) was −4 and the “mean change (SD) from Baseline to Endpoint in PANSS Negative Symptom subscale score” value ([5]; olanzapine 15 mg, ITT) was −4.6 (5.2).
